Calls of active or inactive are those of the source.
What was measured:
Leucine aminopeptidase = target: T1, Leucine aminopeptidase (Plasmodium falciparum 3D7, UniProt Q8IL11); assay: P. falciparum M17LAP inhibitors, primary screen, biochemical, fluorogenic H-Leu-NHMec substrate, 1536-well (AID 1619); format: functional
T1 sequence (Q8IL11 whole entry): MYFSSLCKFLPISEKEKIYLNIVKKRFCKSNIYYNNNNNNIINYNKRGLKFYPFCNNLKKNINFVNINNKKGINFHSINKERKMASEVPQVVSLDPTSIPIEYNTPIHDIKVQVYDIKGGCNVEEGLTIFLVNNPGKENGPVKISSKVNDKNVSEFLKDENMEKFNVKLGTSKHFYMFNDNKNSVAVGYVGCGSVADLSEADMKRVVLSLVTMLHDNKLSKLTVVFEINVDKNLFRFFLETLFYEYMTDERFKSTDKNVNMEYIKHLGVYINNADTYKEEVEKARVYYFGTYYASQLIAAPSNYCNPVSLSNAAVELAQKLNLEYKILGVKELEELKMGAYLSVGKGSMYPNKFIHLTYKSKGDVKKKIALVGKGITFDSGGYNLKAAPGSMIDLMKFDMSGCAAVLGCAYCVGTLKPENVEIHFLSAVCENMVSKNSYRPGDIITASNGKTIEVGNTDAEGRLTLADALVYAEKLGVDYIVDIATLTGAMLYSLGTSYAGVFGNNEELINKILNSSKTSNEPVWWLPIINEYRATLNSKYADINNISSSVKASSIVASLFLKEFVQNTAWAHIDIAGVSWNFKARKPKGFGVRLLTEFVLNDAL

[1] = target: Peroxisome proliferator-activated receptor gamma/Nuclear receptor coactivator 1 (Homo sapiens, UniProt P37231); assay: TR-FRET dose response biochemical High Throughput Screening assay for agonists of the steroid receptor coactivator 1 (SRC-1) recruitment by the peroxisome proliferator-activated receptor gamma (PPAR gamma): non-selective agonists. [Related pubchem assays (depositor defined):AID1300, AID1808, AID504735, AID631]; format: protein assay
[2] = target: Peroxisome proliferator-activated receptor gamma/Nuclear receptor coactivator 2 (Homo sapiens, UniProt P37231); assay: TR-FRET dose response biochemical High Throughput Screening assay for agonists of the steroid receptor coactivator 2 (SRC-2) recruitment by the peroxisome proliferator-activated receptor gamma (PPAR gamma): non-selective agonists. [Related pubchem assays: 1297, 1032 ]; format: functional
[3] = target: T2, Polyadenylate-binding protein 1 (Homo sapiens, UniProt P11940); assay: MLLE binding blockers, Cy5 peptide tracer – biochemical, fluorescence polarization, Cy5-PAM2 peptide, secondary, miRNA deadenylation inhibitor project, dose response (AID 602260); format: functional; conditions: read-out: IC50_Mean
[4] = target: T2, Polyadenylate-binding protein 1; assay: MLLE domain peptide-binding blockers, IC50 – biochemical, fluorescence polarization, FITC-PAM2 peptide, dose response (AID 602259); format: functional; conditions: read-out: IC50_Mean
[5] = target: Peroxisome proliferator-activated receptor gamma/Nuclear receptor coactivator 3 (Homo sapiens, UniProt P37231); assay: TR-FRET dose response biochemical High Throughput Screening assay for agonists of the steroid receptor coactivator 3 (SRC-3) recruitment by the peroxisome proliferator-activated receptor gamma (PPAR gamma): non-selective agonists. [Related pubchem assays: 1301 (Confirmation screen.), 1048 (Primary screen.)]; format: functional
cells = format: functional
[6] = target: T3, Replicative DNA helicase DnaB (Mycobacterium tuberculosis, UniProt P9WMR3); assay: DnaB intein splicing inhibitors, dose response, biochemical, cell-free fluorescence (AID 449749); format: functional
T3 sequence (P9WMR3 whole entry): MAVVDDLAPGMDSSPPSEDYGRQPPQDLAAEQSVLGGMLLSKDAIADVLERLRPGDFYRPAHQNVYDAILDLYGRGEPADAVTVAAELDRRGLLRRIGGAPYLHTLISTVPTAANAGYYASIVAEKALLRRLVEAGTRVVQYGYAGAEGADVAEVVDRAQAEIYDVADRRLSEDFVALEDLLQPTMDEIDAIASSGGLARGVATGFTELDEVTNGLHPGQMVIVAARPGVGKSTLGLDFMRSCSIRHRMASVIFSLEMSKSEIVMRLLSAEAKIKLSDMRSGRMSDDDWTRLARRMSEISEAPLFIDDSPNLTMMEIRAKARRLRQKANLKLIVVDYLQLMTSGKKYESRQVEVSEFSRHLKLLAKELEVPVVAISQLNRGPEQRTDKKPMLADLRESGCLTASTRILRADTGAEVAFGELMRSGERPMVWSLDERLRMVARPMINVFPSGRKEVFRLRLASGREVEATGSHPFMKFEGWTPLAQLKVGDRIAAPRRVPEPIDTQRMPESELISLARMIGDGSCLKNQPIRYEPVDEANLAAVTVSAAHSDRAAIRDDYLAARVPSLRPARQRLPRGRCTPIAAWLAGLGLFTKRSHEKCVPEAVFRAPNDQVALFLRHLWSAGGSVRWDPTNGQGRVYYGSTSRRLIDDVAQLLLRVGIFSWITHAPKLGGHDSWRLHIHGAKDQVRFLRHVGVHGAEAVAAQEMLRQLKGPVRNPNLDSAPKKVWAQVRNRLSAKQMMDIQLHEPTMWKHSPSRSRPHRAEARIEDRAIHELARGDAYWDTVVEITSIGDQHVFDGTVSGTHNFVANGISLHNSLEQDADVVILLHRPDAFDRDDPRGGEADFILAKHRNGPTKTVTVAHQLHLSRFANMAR

Protein RecA = target: T4, Protein RecA (Mycobacterium tuberculosis, UniProt P9WHJ3); assay: Fluorescence Cell-Free Homogeneous Dose Retest to Identify Inhibitors of RecA-Intein Splicing Activity. [Related pubchem assays (depositor defined):AID2097, AID2223, AID489010, AID492950]; format: functional
T4 sequence (P9WHJ3 whole entry): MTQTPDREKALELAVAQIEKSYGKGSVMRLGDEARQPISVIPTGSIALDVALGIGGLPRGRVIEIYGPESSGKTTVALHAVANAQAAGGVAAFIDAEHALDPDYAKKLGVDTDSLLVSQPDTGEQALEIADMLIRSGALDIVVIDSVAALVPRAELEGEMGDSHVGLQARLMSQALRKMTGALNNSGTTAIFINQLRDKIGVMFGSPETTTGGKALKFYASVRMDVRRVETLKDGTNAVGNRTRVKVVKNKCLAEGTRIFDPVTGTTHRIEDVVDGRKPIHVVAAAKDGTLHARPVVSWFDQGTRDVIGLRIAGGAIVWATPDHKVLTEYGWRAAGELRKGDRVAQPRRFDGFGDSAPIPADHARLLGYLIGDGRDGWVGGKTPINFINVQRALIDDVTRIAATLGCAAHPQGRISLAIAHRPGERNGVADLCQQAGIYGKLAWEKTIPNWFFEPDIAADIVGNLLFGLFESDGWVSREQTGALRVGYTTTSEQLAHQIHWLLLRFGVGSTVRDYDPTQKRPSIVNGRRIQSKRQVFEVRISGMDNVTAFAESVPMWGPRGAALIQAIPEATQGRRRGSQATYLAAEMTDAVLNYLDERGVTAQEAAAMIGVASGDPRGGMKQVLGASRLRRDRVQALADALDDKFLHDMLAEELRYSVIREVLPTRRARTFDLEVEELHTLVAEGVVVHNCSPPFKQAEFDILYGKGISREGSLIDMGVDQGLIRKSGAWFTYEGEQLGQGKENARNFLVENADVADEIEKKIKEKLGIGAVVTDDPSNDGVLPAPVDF

[7] = viability of PTEN-deleted HCT116 cells – cell-based, HCT116 PTEN knockout, dose response (AID 1047); format: functional;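 note: HCT116 colon tumor cells with PTEN knocked out; cells exposed to compound for 60 hours before readout; potency for loss of cell viability measured by luminescence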
[8] = THP-1 cell cytotoxicity, dose response, cytotoxicity control for non-replicating M. tuberculosis project (AID 489025); format: functional
[9] = viability of HCT116 lacking mutant beta-catenin – cell-based, human colon tumor, dose response (AID 1045); format: functional;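 note: HCT116 colon tumor cells with beta catenin knocked out; cells exposed to compound for 60 hours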
[10] = Luminescence Cell-Based Dose Retest to Confirm Inhibitors of Cancer Stem Cells. [Related pubchem assays (depositor defined):AID2717, AID2721]; format: functional; conditions: Homo sapiens
BJ [11] = assay: cells; format: functional, cell-based; conditions: Homo sapiens
[12] = DRD fibroblast viability loss – cell-based, non-viral oncogenic, luminescence, dose response (AID 1934); format: functional; conditions: Homo sapiens
BJ [13] = assay: BJ-TERT fibroblast viability loss – cell-based, RAS-independent, luminescence, dose response (AID 1933); format: functional; conditions: Homo sapiens
BJ [14] = assay: BJ-TERT-LT-ST fibroblast viability loss – cell-based, RAS-independent, luminescence, dose response (AID 1935); format: functional; conditions: Homo sapiens;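 note: BJ fibroblasts immortalized with TERT plus LT and ST oncogenes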
[15] = target: T5, Voltage-gated N-type calcium channel alpha-1B subunit/Amyloid beta A4 precursor protein-binding family A member 1 (Homo sapiens, UniProt Q00975+Q02410); format: protein assay
[16] = target: T5, Voltage-gated N-type calcium channel alpha-1B subunit/Amyloid beta A4 precursor protein-binding family A member 1; format: protein assay; remark: listed apart in the source
Nonstructural protein 1 = Nonstructural protein 1 (Influenza A virus, UniProt Q194T2); format: functional, Influenza A virus (A/California/07/2009(H1N1))
[17] = viability of uninfected HEp-2 cells – cell-based, HTS, cytotoxicity control for RSV inhibitor project, dose response (AID 2410); format: functional; conditions: human respiratory syncytial virus
[18] = target: T6, High affinity choline transporter 1 (Homo sapiens, UniProt Q9GZV3); assay: human choline transporter blockers, potency – cell-based, 5-point CRC, membrane potential dye, dose response (AID 504840); format: functional
T6 sequence (Q9GZV3 whole entry): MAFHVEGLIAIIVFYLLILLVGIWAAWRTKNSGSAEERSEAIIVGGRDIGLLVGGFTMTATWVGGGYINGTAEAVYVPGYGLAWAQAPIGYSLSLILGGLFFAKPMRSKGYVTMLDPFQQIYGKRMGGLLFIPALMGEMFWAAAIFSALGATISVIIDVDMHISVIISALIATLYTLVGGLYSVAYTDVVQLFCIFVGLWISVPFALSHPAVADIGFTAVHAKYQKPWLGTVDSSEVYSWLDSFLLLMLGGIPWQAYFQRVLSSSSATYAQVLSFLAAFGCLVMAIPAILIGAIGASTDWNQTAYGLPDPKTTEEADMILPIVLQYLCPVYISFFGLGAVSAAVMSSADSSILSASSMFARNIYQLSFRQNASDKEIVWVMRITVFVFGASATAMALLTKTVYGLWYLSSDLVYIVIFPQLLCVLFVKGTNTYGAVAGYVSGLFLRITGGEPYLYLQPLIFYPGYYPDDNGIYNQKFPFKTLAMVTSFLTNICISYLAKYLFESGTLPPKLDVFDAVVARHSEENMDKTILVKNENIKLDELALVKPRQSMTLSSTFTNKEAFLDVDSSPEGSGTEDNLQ

H9c2 = assay: cells; format: functional, cell-based; conditions: Rattus norvegicus, H9c2, Myocardium;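 note: confirmatory concentration-response retest of ultra-high-throughput screening hits for modulation of myocardial damage; cell death induced by hydrogen peroxide oxidative stress; compound pretreatment for 60 min then peroxide exposure for 2 h; potency is for protecting the cells against peroxide damage rather than for killing them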

Sequence of Nonstructural protein 1 (Q194T2 whole entry): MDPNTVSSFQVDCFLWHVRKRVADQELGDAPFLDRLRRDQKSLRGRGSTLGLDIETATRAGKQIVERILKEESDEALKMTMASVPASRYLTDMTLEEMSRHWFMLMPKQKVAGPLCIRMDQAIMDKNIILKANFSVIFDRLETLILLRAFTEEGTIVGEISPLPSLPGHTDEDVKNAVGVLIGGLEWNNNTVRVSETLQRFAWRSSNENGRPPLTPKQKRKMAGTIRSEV
T5 sequence (Q00975 whole entry): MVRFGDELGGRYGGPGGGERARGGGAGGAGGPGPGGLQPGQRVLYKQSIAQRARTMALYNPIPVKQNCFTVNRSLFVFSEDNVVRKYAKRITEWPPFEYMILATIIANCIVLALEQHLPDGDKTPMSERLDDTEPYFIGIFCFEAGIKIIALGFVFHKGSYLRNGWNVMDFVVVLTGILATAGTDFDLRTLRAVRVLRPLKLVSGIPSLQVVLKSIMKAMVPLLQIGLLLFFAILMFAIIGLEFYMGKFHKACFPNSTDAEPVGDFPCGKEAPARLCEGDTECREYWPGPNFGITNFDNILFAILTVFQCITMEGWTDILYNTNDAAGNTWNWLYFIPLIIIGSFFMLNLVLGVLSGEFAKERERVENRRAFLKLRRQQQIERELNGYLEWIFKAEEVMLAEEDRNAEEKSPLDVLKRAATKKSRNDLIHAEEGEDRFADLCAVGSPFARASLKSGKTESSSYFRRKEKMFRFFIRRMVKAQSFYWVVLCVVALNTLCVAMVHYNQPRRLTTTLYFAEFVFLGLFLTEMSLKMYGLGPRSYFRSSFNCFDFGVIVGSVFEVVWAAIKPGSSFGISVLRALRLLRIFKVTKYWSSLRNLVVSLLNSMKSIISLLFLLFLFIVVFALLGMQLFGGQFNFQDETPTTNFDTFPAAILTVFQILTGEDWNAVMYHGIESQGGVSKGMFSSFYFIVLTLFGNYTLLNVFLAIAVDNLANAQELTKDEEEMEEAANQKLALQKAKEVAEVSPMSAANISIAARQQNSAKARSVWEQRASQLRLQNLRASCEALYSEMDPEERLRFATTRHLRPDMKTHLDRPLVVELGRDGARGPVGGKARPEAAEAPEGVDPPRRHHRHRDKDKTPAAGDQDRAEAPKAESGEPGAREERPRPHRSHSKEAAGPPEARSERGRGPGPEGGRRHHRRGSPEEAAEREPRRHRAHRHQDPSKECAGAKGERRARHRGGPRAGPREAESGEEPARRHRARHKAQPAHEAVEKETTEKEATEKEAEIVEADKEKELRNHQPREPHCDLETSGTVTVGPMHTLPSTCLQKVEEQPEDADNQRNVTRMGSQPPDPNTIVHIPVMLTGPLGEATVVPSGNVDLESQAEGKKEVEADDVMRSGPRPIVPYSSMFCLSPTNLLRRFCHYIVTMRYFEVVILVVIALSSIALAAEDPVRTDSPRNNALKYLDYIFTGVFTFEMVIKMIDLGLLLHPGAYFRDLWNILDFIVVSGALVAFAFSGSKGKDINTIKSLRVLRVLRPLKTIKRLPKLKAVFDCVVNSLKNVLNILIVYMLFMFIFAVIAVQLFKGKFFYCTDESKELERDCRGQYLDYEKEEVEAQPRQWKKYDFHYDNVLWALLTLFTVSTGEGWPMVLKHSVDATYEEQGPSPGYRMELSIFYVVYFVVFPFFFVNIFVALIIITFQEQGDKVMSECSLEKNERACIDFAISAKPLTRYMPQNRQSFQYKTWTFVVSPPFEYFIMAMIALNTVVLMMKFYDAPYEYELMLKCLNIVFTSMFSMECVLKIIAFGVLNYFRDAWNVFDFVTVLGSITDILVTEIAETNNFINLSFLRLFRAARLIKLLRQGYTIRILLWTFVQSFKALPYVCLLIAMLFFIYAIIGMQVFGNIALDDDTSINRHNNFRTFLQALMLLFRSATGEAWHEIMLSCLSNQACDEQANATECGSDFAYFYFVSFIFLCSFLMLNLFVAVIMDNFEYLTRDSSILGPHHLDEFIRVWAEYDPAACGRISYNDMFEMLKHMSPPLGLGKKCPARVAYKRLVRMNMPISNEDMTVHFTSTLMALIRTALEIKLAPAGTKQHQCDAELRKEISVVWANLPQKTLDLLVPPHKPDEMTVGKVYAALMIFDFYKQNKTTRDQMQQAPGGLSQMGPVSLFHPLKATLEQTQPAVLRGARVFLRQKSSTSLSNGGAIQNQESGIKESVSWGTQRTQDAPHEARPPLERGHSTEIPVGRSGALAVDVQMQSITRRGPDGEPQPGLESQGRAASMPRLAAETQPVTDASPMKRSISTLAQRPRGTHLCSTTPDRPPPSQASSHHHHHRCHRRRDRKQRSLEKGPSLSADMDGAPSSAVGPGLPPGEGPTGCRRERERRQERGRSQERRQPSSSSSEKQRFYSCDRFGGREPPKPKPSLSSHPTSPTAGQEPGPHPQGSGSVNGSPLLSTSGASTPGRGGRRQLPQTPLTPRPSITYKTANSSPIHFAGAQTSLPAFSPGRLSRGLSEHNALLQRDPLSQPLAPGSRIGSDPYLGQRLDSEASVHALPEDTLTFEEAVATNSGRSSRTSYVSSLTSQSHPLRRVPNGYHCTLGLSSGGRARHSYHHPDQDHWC
T5 sequence (Q02410 whole entry): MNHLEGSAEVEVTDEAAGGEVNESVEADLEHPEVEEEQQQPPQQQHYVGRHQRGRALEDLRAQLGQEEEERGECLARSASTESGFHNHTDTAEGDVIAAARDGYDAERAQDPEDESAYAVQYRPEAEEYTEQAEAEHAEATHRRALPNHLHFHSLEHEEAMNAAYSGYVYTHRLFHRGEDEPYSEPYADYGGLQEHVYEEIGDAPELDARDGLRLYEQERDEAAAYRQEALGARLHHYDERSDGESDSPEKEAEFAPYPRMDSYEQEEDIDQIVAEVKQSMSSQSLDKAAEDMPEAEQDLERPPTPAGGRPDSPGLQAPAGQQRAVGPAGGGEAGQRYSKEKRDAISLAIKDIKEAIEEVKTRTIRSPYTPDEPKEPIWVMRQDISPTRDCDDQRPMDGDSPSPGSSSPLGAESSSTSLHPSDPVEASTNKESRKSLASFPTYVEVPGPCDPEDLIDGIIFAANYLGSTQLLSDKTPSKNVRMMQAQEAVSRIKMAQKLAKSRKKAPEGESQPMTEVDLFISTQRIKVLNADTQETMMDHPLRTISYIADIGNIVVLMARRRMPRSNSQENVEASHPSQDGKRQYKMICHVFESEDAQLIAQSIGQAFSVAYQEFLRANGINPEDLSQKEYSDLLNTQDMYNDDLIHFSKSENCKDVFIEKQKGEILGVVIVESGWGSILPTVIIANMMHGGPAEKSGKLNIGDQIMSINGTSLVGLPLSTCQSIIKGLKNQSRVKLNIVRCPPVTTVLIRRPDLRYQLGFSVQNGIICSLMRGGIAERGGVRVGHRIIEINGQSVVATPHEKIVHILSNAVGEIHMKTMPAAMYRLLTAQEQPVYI
T2 sequence (P11940 whole entry, the tested form may be a part): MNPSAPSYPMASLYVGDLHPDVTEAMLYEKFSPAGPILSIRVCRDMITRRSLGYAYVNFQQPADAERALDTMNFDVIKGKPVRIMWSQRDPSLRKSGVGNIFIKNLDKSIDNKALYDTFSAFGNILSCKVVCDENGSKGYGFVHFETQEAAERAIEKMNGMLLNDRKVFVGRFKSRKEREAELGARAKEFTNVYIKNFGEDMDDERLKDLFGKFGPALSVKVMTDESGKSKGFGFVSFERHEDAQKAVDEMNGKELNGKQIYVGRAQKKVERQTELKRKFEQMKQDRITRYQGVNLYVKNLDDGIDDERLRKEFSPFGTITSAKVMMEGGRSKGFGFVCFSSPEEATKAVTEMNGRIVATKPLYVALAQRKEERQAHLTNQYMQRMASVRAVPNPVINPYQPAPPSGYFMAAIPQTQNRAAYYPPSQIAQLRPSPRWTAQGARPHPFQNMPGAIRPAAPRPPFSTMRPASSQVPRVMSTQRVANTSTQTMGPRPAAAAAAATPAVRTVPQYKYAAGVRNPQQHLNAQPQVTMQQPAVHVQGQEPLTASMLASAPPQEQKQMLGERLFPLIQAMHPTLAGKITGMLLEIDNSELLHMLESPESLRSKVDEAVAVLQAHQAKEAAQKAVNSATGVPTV

SMILES: Cc1sc(NC(=S)Nc2ccc(F)cc2)c(C(N)=O)c1C
- IC50 (Leucine aminopeptidase): 53.1 µM (active)
- EC50 [1]: 9.36 µM (active)
- EC50 [2]: 9.42 µM (active)
- IC50 [3]: > 66 µM (inactive)
- IC50 [4]: > 66 µM (inactive)
- EC50 [5]: > 79.4 µM (not active)

SMILES: O=C(O)CSc1nnc(CNc2cccc(C(F)(F)F)c2)n1Cc1ccco1
- IC50 (Leucine aminopeptidase): 48.8 µM (active)

SMILES: CC(=O)OCCNc1cc(SCc2ccco2)c2nonc2c1[N+](=O)[O-]
- IC50 (cells): 5.86 µM (active)
- AC50 [6]: 8.4 µM (active)
- EC50 (Protein RecA): 2.73 µM (active)
- EC50 [7]: 23.7 µM (active)
- CC50 [8]: 30.1 µM (active)
- EC50 [9]: 17.6 µM (active)

SMILES: CN(C)CCCNc1ccc(-c2cc(Nc3cccc(Cl)c3)ncn2)cn1
- AC50 [10]: 4.54 µM (active)
- EC50 (BJ [11]): > 150 µM (not active)
- EC50 [12]: 22.6 µM (active)
- EC50 (BJ [13]): 14.1 µM (active)
- EC50 (BJ [14]): > 75 µM (not active)

SMILES: O=C(COC(=O)CNC(=O)c1ccc(-c2ccccc2)cc1)NCc1ccco1
- IC50 [15]: 49.5 µM (active)
- IC50 [16]: 5.35 µM (active)

SMILES: C=CCN1C=C/C(=C\C=C(C#N)C#N)c2ccccc21
- IC50 (Nonstructural protein 1): 14.2 µM (active)

SMILES: Cc1cc(=O)oc2cc(NC(=O)c3cccc(Br)c3)ccc12
- IC50 [15]: > 50 µM (inactive)
- IC50 [16]: 5.32 µM (active)

SMILES: Cc1ccc(S(=O)(=O)Nc2nncs2)cc1
- IC50 (Leucine aminopeptidase): 23.2 µM (active)

SMILES: Clc1cc(Cl)cc(Nc2nc[nH]n2)c1
- CC50 [17]: 22.7 µM (active)
- IC50 (Leucine aminopeptidase): 23.3 µM (active)

SMILES: O=C(NCc1cccnc1)c1ccc(COc2ccccc2Cl)o1
- IC50 [18]: 14.5 µM (active)

SMILES: CCCCNC(=O)CSc1cc(=O)n(C)c2ccccc12
- EC50 [1]: > 79.4 µM (inactive)
- EC50 [2]: > 79.4 µM (not active)
- EC50 [5]: > 79.4 µM (not active)

SMILES: O=S(=O)(c1ccccc1F)N1CCN(CCc2ccccc2)CC1
- IC50 [18]: 5.45 µM (active)

SMILES: Cc1ccc(NC(S)=Nc2ccc3nc(-c4ccccn4)c(-c4ccccn4)nc3c2)cc1C
- IC50 [18]: 13.2 µM (active)

SMILES: Oc1ccc(/C=N/NC(=S)Nc2cccnc2)cc1O
- IC50 (Leucine aminopeptidase): 49.6 µM (active)

SMILES: O=C(Nc1ccc(F)cc1)C1=CC(=O)N2CCN=C2S1
- IC50 [15]: > 50 µM (inactive)
- IC50 [16]: 10.7 µM (active)

SMILES: CCOC(=O)C1CSC(CC(=O)Nc2ccc(OCC)cc2)C(=O)N1 (centres undefined)
- IC50 (Leucine aminopeptidase): 11.4 µM (active)

SMILES: CCn1c(=O)cc(SCC(=O)Nc2cccnc2)c2ccccc21
- EC50 [1]: > 79.4 µM (inactive)
- EC50 [2]: > 79.4 µM (not active)
- EC50 [5]: > 79.4 µM (not active)

SMILES: COc1ccccc1OCC(=O)N/N=C/c1cccc2cccnc12
- IC50 (Nonstructural protein 1): 13.5 µM (active)
- IC50 (H9c2): 10.9 µM (active)

SMILES: Cc1ccc(S(=O)(=O)/N=C2\C(=O)c3ccccc3C(O)=C2N2CCN(c3ccccc3F)CC2)cc1
- IC50 (Nonstructural protein 1): 79.2 µM (active)

SMILES: CCN(C(=O)CN1C(=O)S/C(=C\C=C\c2ccccc2)C1=O)C1CCS(=O)(=O)C1 (centres undefined)
- IC50 [15]: > 50 µM (inactive)
- IC50 [16]: > 56.8 µM (not active)
